The record followed here is patent US10681908B2, “Molecules having pesticidal utility, and intermediates, compositions, and processes, related thereto” (Dow AgroSciences LLC, priority 2016, dated 2020).

The subject of experiment [1] is Cabbage Looper (Trichoplusia ni, TRIPNI). In words: Bioassay on Cabbage Looper (CL), 128-well diet tray assay. The class given is in vivo. Particulars: 168 h, 50 μg/cm^2 on artificial diet, second instar larvae, five to seven days, 25° C., read-out: CL % Control (or Mortality) rating. How it is done:
(§1) Example A: Bioassays on Beet Armyworm (Spodoptera Exigua, LAPHEG) (“BAW”), Corn Earworm (Helicoverpa zea, HELIZE) (“CEW”), and Cabbage Looper (Trichoplusia ni, TRIPNI) (“CL”)
(§2) Certain molecules disclosed in this document were tested against BAW, CEW, and CL using procedures described in the following examples. In the reporting of the results, the “BAW, CEW, & CL Rating Table” was used (See Table Section).
Bioassays on CL were conducted using a 128-well diet tray assay. One to five second instar CL larvae were placed in each well (3 mL) of the diet tray that had been previously filled with 1 mL of artificial diet to which 50 μg/cm^2 of the test molecule (dissolved in 50 μL of 90:10 acetone-water mixture) had been applied (to each of eight wells) and then allowed to dry. Trays were covered with a clear self-adhesive cover and held at 25° C., 14:10 light-dark for five to seven days. Percent mortality was recorded for the larvae in each well; activity in the eight wells was then averaged. The results are indicated in the table entitled “Table ABC: Biological Results” (See Table Section).
(§3) Bioassays on BAW and CL were conducted according to the procedures outlined in Example A: Bioassays on Beet Armyworm (“BAW”) and Cabbage Looper (“CL”) using the indicated concentrations.

The subject of experiment [2] is Beet Armyworm (Spodoptera exigua, LAPHEG). In words: Bioassay on Beet Armyworm (BAW), 128-well diet tray assay. The class given is in vivo. Particulars: 168 h, 50 μg/cm^2 on artificial diet, second instar larvae, five to seven days, 25° C., read-out: BAW % Control (or Mortality) rating. How it is done:
as §1, §2
Bioassays on BAW were conducted using a 128-well diet tray assay. One to five second instar BAW larvae were placed in each well (3 mL) of the diet tray that had been previously filled with 1 mL of artificial diet to which 50 μg/cm^2 of the test molecule (dissolved in 50 μL of 90:10 acetone-water mixture) had been applied (to each of eight wells) and then allowed to dry. Trays were covered with a clear self-adhesive cover and held at 25° C., 14:10 light-dark for five to seven days. Percent mortality was recorded for the larvae in each well; activity in the eight wells was then averaged. The results are indicated in the table entitled “Table ABC: Biological Results” (See Table Section).
as §3

For orientation: mortality means the share of the test organisms that died. `CCC(F)(F)C(/C=C(\F)c1ccc(C(=O)N[C@H](C)CSCC(F)(F)F)c(C(F)(F)F)c1)c1cc(Cl)c(Cl)c(Cl)c1` (stereo partly drawn) [F39, 4-((Z)-1,4,4-Trifluoro-3-(3,4,5-trichlorophenyl)hex-1-en-1-yl)-N—((R)-1-((2,2,2-trifluoroethyl)thio)propan-2-yl)-2-(trifluoromethyl)benzamide]: the mortality at 50 µg/cm2 in experiment [1] and in experiment [2] was 50 to 100% each time.
For `CCSC[C@@H](C)NC(=O)c1ccc(/C(F)=C/C(c2cc(Br)cc(Br)c2)C(F)(F)F)cc1C(F)(F)F` (stereo partly drawn) [F40, 4-((Z)-3-(3,5-Dibromophenyl)-1,4,4,4-tetrafluorobut-1-en-1-yl)-N—((R)-1-(ethylthio)propan-2-yl)-2-(trifluoromethyl)benzamide], the mortality at 50 µg/cm2 in experiment [1] and in experiment [2] was 50 to 100% throughout.
`CCSC[C@@H](C)NC(=O)c1ccc(/C(F)=C/C(c2cc(Cl)c(F)c(Cl)c2)C(F)(F)F)cc1C(F)(F)F` (stereo partly drawn) [F41, 4-((Z)-3-(3,5-Dichloro-4-fluorophenyl)-1,4,4,4-tetrafluorobut-1-en-1-yl)-N—((R)-1-(ethylthio)propan-2-yl)-2-(trifluoromethyl)benzamide]: the mortality at 50 µg/cm2 in experiment [1] and in experiment [2] was 50 to 100% each time.
Take `C=Cc1c(Cl)cc(C(/C=C(\F)c2ccc(C(=O)N[C@H](C)CSCC)c(C(F)(F)F)c2)C(F)(F)F)cc1Cl` (stereo partly drawn) [F47, 4-((Z)-3-(3,5-Dichloro-4-vinylphenyl)-1,4,4,4-tetrafluorobut-1-en-1-yl)-N—((R)-1-(ethylthio)propan-2-yl)-2-(trifluoromethyl)benzamide]: the mortality at 50 µg/cm2 in experiment [1] and in experiment [2] was 50 to 100% throughout.
On to `CCSC[C@@H](C)NC(=O)c1ccc(/C(F)=C/C(c2cc(Cl)c(Br)c(Cl)c2)C(F)(F)F)cc1C(F)(F)F` (some centres unmarked) [F48], for which the mortality at 50 µg/cm2 in experiment [1] and in experiment [2] was 50 to 100% each time.
For `O=C(NCC[S+]([O-])CC(F)(F)F)c1ccc(/C(F)=C/C(c2cc(Cl)c(Cl)c(Cl)c2)C(F)(F)F)cc1C(F)(F)F` (centres unmarked) [F50, (Z)-4-(1,4,4,4-tetrafluoro-3-(3,4,5-trichlorophenyl)but-1-en-1-yl)-N-(2-((2,2,2-trifluoroethyl)sulfinyl)ethyl)-2-(trifluoromethyl)benzamide], the mortality at 50 µg/cm2 in experiment [1] and in experiment [2] was 50 to 100% in each case.
With `O=C(NCCSCC(F)(F)F)c1ccc(/C(F)=C/C(c2cc(Cl)c(Cl)c(Cl)c2)C(F)(F)F)cc1C(F)(F)F` (centres unmarked) [F51, (Z)-4-(1,4,4,4-tetrafluoro-3-(3,4,5-trichlorophenyl)but-1-en-1-yl)-N-(2-((2,2,2-trifluoroethyl)thio)ethyl)-2-(trifluoromethyl)benzamide], the mortality at 50 µg/cm2 in experiment [1] and in experiment [2] was 50 to 100% each time.
As to `C[C@H](CSCC(F)(F)F)NC(=O)c1ccc(/C(F)=C/C(c2ccc(Cl)c(Cl)c2)C(C)(F)F)cc1C(F)(F)F` (stereo partly drawn) [F57, 4-((Z)-3-(3,4-Dichlorophenyl)-1,4,4-trifluoropent-1-en-1-yl)-N—((R)-1-((2,2,2-trifluoroethyl)thio)propan-2-yl)-2-(trifluoromethyl)benzamide], the mortality at 50 µg/cm2 in experiment [1] and in experiment [2] was 50 to 100% each time.
Turning to `C[C@H](CSCC(F)(F)F)NC(=O)c1ccc(/C(F)=C/C(c2ccc(Cl)c(Cl)c2)C(F)(F)F)cc1Br` (stereo partly drawn) [F58, 2-Bromo-4-((Z)-3-(3,4-dichlorophenyl)-1,4,4,4-tetrafluorobut-1-en-1-yl)-N—((R)-1-((2,2,2-trifluoroethyl)thio)propan-2-yl)benzamide], the mortality at 50 µg/cm2 in experiment [1] and in experiment [2] was 50 to 100% throughout.
For `C[C@H](CSCC(F)(F)F)NC(=O)c1ccc(/C(F)=C/C(c2ccc(Br)c(Br)c2)C(F)(F)F)cc1C(F)(F)F` (some centres unmarked) [F62], the mortality at 50 µg/cm2 in experiment [1] and in experiment [2] was 50 to 100% each time.
